From patent publication US20210188843A1, “QUINOLINE COMPOUNDS AND THEIR PREPARATION AND USE AS ANTIMALARIAL AGENTS” (The United States of America,as represented by the …, priority 2018, published 2021)
Values after ≈ are worked out from the molar mass of the structure shown. Like-named read-outs stand apart in the source and are kept apart here. Each block holds one compound with its values, some of them ahead of it.

Columns and labels:
[1] = test system: Asexual parasites of P. falciparum strain 3D7; assay: In vitro drug activity on asexual parasites (SYBR Green assay); assay type: cell-based; conditions: Plasmodium falciparum, read-out: Asexual EC50
In short: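 3D7 asexual cultures at 0.5% parasitemia and 2% hematocrit were exposed to drug (DMSO <0.5%) for 72 h under standard culture conditions, in duplicate with no-drug and RBC-only controls. After freeze-thaw lysis, SYBR Green I lysis buffer was added for 30 min at room temperature; fluorescence was read at 490 nm excitation/520 nm emission.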

[2] = Microsomal stability (rat); assay type: in vitro ADME; conditions: rat microsomes
Solubility pH 7.4 = assay type: physicochemical; conditions: aqueous buffer
PAMPA permeability = assay type: in vitro ADME
[3] = Table 2, P. falciparum 3D7 asexual stage, 72 h
[4] = Table 2, read-out: Microsomal Stability (rat) T1/2
[5] = Table 3, P. falciparum 3D7 asexual stage, 72 h
[6] = Table 3, read-out: Microsomal Stability (rat) T1/2
[7] = Table 1, P. falciparum 3D7 asexual stage, 72 h
[8] = Table 1, read-out: Microsomal Stability (rat) T1/2

EC50 [1, 5]: 220 nM
half-life [2, 6]: > 30 min
solubility (Solubility pH 7.4; Table 3): 16.3 µg/mL (≈ 42.1 µM)
Papp (PAMPA permeability; Table 3): 397 ×10⁻⁶ cm/s
SMILES: Cn1c(=N)n(-c2cncnc2)c2c3cc(-c4ccc(Cl)cc4)ccc3ncc21

EC50 [1, 5]: 194 nM
half-life [2, 6]: > 30 min
solubility (Solubility pH 7.4; Table 3): 2 µg/mL (≈ 5.4 µM)
Papp (PAMPA permeability; Table 3): 26.2 ×10⁻⁶ cm/s
SMILES: Cn1c(=N)n(-c2cncnc2)c2c3cc(-c4ccc(F)cc4)ccc3ncc21

EC50 [1, 5]: 143 nM
half-life [2, 6]: > 30 min
solubility (Solubility pH 7.4; Table 3): 33.9 µg/mL (≈ 92 µM)
Papp (PAMPA permeability; Table 3): 12.9 ×10⁻⁶ cm/s
SMILES: Cn1c(=N)n(-c2cncnc2)c2c3cc(-c4ccc(N)nc4)ccc3ncc21

EC50 [1, 5]: 230 nM
half-life [2, 6]: > 30 min
solubility (Solubility pH 7.4; Table 3): 18.5 µg/mL (≈ 50.5 µM)
Papp (PAMPA permeability; Table 3): 32.3 ×10⁻⁶ cm/s
SMILES: Cc1ccc(-c2ccc3ncc4c(c3c2)n(-c2cncnc2)c(=N)n4C)cc1

EC50 [1, 5]: 538 nM
half-life [2, 6]: > 30 min
solubility (Solubility pH 7.4; Table 3): 6.2 µg/mL (≈ 16.1 µM)
Papp (PAMPA permeability; Table 3): 1180 ×10⁻⁶ cm/s
SMILES: Cc1ncncc1-n1c(=N)n(C)c2cnc3ccc(-c4ccc(F)cc4)cc3c21

EC50 [1, 5]: 1150 nM
half-life [2, 6]: > 30 min
solubility (Solubility pH 7.4; Table 3): > 38 µg/mL
Papp (PAMPA permeability; Table 3): 1240 ×10⁻⁶ cm/s
SMILES: Cc1ccc(-c2ccc3ncc4c(c3c2)n(-c2cncnc2C)c(=N)n4C)cc1

EC50 [1, 5]: 1240 nM
half-life [2, 6]: > 30 min
solubility (Solubility pH 7.4; Table 3): > 38 µg/mL
Papp (PAMPA permeability; Table 3): 1100 ×10⁻⁶ cm/s
SMILES: Cc1ncncc1-n1c(=N)n(C)c2cnc3ccc(-c4cccc(F)c4)cc3c21

EC50 [1, 5]: 17 nM
half-life [2, 6]: > 30 min
solubility (Solubility pH 7.4; Table 3): > 61 µg/mL
Papp (PAMPA permeability; Table 3): 510 ×10⁻⁶ cm/s
SMILES: COc1ccc(-c2ccc3ncc4c(c3c2)n(-c2cncnc2)c(=N)n4C)cc1OC

EC50 [1, 5]: 560 nM
half-life [2, 6]: > 30 min
solubility (Solubility pH 7.4; Table 3): 31 µg/mL (≈ 73.6 µM)
Papp (PAMPA permeability; Table 3): 541 ×10⁻⁶ cm/s
SMILES: Cn1c(=N)n(-c2cncnc2)c2c3cc(-c4ccc(C(F)(F)F)nc4)ccc3ncc21

EC50 [1, 5]: 190 nM
half-life [2, 6]: > 30 min
solubility (Solubility pH 7.4; Table 3): > 54 µg/mL
Papp (PAMPA permeability; Table 3): 136 ×10⁻⁶ cm/s
SMILES: Cc1ccc(-c2ccc3ncc4c(c3c2)n(-c2cncnc2)c(=N)n4C)cn1

EC50 [1, 5]: 1050 nM
half-life [2, 6]: > 30 min
solubility (Solubility pH 7.4; Table 3): 34.5 µg/mL (≈ 90 µM)
Papp (PAMPA permeability; Table 3): 684 ×10⁻⁶ cm/s
SMILES: COc1ccc(-c2ccc3ncc4c(c3c2)n(-c2cncnc2)c(=N)n4C)cn1

EC50 [1, 5]: 58 nM
solubility (Solubility pH 7.4; Table 3): > 63 µg/mL
Papp (PAMPA permeability; Table 3): 1240 ×10⁻⁶ cm/s
SMILES: COc1ccc(-c2ccc3ncc4c(c3c2)n(-c2nccnc2C)c(=N)n4C)cc1OC

Second part, the compound before the results:

SMILES: CN(C)CCN1CCN(C(=O)c2ccc(-n3/c(=N\C#N)ccc4cnc5ccc(-c6ccc(Cl)cc6)cc5c43)cc2)CC1
EC50 [1, 3]: 45.4 nM
half-life [2, 4]: > 30 min
solubility (Solubility pH 7.4; Table 2): 3.2 µg/mL (≈ 5.42 µM)
Papp (PAMPA permeability; Table 2): 8.8 ×10⁻⁶ cm/s

SMILES: N=c1ccc2cnc3ccc(-c4ccc(Cl)cc4)cc3c2n1-c1cccc(Cl)c1
EC50 [1, 3]: 178 nM
half-life [2, 4]: > 30 min
solubility (Solubility pH 7.4; Table 2): 20.7 µg/mL (≈ 49.7 µM)
Papp (PAMPA permeability; Table 2): 1240 ×10⁻⁶ cm/s

SMILES: CCC(=O)/N=c1/ccc2cnc3ccc(-c4ccc(Cl)cc4)cc3c2n1-c1ccc(C(=O)NC2CC2)cc1
EC50 [1, 3]: 47.5 nM
half-life [2, 4]: 4.8 min
solubility (Solubility pH 7.4; Table 2): < 1 µg/mL
Papp (PAMPA permeability; Table 2): 445 ×10⁻⁶ cm/s

SMILES: C/N=c1\ccc2cnc3ccc(-c4ccc(Cl)cc4)cc3c2n1-c1ccc(C(=O)NC2CC2)cc1
EC50 [1, 3]: 1210 nM
half-life [2, 4]: 17.4 min
solubility (Solubility pH 7.4; Table 2): < 1 µg/mL
Papp (PAMPA permeability; Table 2): 130 ×10⁻⁶ cm/s

SMILES: N=c1ccc2cnc3ccc(-c4ccc(N)nc4)cc3c2n1-c1cccc(C(F)(F)F)c1
EC50 [1, 3]: 21.8 nM
half-life [2, 4]: > 30 min
solubility (Solubility pH 7.4; Table 2): > 64 µg/mL
Papp (PAMPA permeability; Table 2): 228 ×10⁻⁶ cm/s

SMILES: Cn1c(=N)n(-c2cncnc2)c2c3cc(-c4cccc(F)c4)ccc3ncc21
EC50 ([1]; 3D7, 72 h): 169 nM
half-life [2, 6]: > 30 min
solubility (Solubility pH 7.4; Table 3): 24.9 µg/mL (≈ 67.2 µM)
Papp (PAMPA permeability; Table 3): 60.6 ×10⁻⁶ cm/s

SMILES: Cc1ncncc1-n1c(=N)n(C)c2cnc3ccc(-c4ccc(Cl)cc4)cc3c21
EC50 [1, 5]: 721 nM
half-life [2, 6]: > 30 min
solubility (Solubility pH 7.4; Table 3): 24.7 µg/mL (≈ 61.6 µM)
Papp (PAMPA permeability; Table 3): 1290 ×10⁻⁶ cm/s

SMILES: CC(=O)N1CCN(c2ncc(-n3c(=N)n(C)c4cnc5ccc(-c6ccc(Cl)cc6)cc5c43)cn2)CC1
EC50 [1, 5]: 391 nM
half-life [2, 6]: > 30 min
solubility (Solubility pH 7.4; Table 3): 22.9 µg/mL (≈ 44.6 µM)
Papp (PAMPA permeability; Table 3): 292 ×10⁻⁶ cm/s

SMILES: Cc1ccc(C#N)cc1-n1/c(=N/C#N)n(C)c2cnc3ccc(-c4ccc(N)nc4)cc3c21 [Compound 4, (E)-N-(8-(6-aminopyridin-3-yl)-1-(5-cyano-2-methylphenyl)-3-methyl-1,3-dihydro-2H-imidazo[4,5-c]quinolin-2-ylidene)cyanamide]
EC50 [1, 7]: 11.9 nM
half-life [2, 8]: > 30 min
solubility (Solubility pH 7.4; Table 1): 3.7 µg/mL (≈ 8.6 µM)
Papp (PAMPA permeability; Table 1): 34.1 ×10⁻⁶ cm/s

SMILES: Cc1ccc(C#N)cc1-n1c(=N)n(C)c2cnc3ccc(-c4ccnn4C)cc3c21 [Compound 5, 3-(2-imino-3-methyl-8-(1-methyl-1H-pyrazol-5-yl)-2,3-dihydro-1H-imidazo[4,5-c]quinolin-1-yl)-4-methylbenzonitrile]
EC50 [1, 7]: 154 nM
half-life [2, 8]: > 30 min
solubility (Solubility pH 7.4; Table 1): 42.5 µg/mL (≈ 108 µM)
Papp (PAMPA permeability; Table 1): 219 ×10⁻⁶ cm/s

SMILES: C/N=c1\n(C)c2cnc3ccc(-c4ccc(Cl)cc4)cc3c2n1-c1cc(C#N)ccc1C [Compound 6, (E)-3-(8-(4-chlorophenyl)-3-methyl-2-(methylimino)-2,3-dihydro-1H-imidazo[4,5-c]quinolin-1-yl)-4-methylbenzonitrile]
EC50 [1, 7]: 279 nM
half-life [2, 8]: > 30 min
solubility (Solubility pH 7.4; Table 1): 9.6 µg/mL (≈ 21.9 µM)
Papp (PAMPA permeability; Table 1): 921 ×10⁻⁶ cm/s

SMILES: Cc1ccc(C#N)cc1-n1/c(=N/C#N)n(C)c2cnc3ccc(-c4ccc(Cl)cc4)cc3c21 [Compound 8, (E)-N-(8-(4-chlorophenyl)-1-(5-cyano-2-methylphenyl)-3-methyl-1,3-dihydro-2H-imidazo[4,5-c]quinolin-2-ylidene)cyanamide]
EC50 [1, 7]: 59.8 nM
half-life [2, 8]: > 30 min
solubility (Solubility pH 7.4; Table 1): < 1 µg/mL
Papp (PAMPA permeability; Table 1): 1190 ×10⁻⁶ cm/s

SMILES: CCC(=O)/N=c1\n(C)c2cnc3ccc(-c4ccc(Cl)cc4)cc3c2n1-c1cc(C#N)ccc1C [Compound 9, (E)-N-(8-(4-chlorophenyl)-1-(5-cyano-2-methylphenyl)-3-methyl-1,3-dihydro-2H-imidazo[4,5-c]quinolin-2-ylidene)propionamide]
EC50 [1, 7]: 38.5 nM
half-life [2, 8]: > 30 min
solubility (Solubility pH 7.4; Table 1): < 1 µg/mL
Papp (PAMPA permeability; Table 1): 526 ×10⁻⁶ cm/s

SMILES: Cn1c(=N)n(-c2cccc(C#N)c2)c2c3cc(-c4ccc(Cl)cc4)ccc3ncc21 [Compound 11, 3-(8-(4-chlorophenyl)-2-imino-3-methyl-2,3-dihydro-1H-imidazo[4,5-c]quinolin-1-yl)benzonitrile]
EC50 [1, 7]: 48.2 nM
half-life [2, 8]: > 30 min
solubility (Solubility pH 7.4; Table 1): 3.1 µg/mL (≈ 7.56 µM)
Papp (PAMPA permeability; Table 1): 1000 ×10⁻⁶ cm/s

SMILES: Cc1ccc(C#N)cc1-n1c(=N)n(C)c2cnc3ccc(-c4ccc(F)cc4)cc3c21 [Compound 12, 3-(8-(4-fluorophenyl)-2-imino-3-methyl-2,3-dihydro-1H-imidazo[4,5-c]quinolin-1-yl)-4-methylbenzonitrile]
EC50 [1, 7]: 64.4 nM
half-life [2, 8]: > 30 min
solubility (Solubility pH 7.4; Table 1): 3.9 µg/mL (≈ 9.57 µM)
Papp (PAMPA permeability; Table 1): 1030 ×10⁻⁶ cm/s

SMILES: CSc1ccc(C#N)cc1-n1/c(=N/C#N)n(C)c2cnc3ccc(-c4ccc(Cl)cc4)cc3c21 [Compound 18, (E)-N-(8-(4-chlorophenyl)-1-(5-cyano-2-(methylthio)phenyl)-3-methyl-1,3-dihydro-2H-imidazo[4,5-c]quinolin-2-ylidene)cyanamide]
EC50 [1, 7]: 564 nM
half-life [2, 8]: 16.9 min
solubility (Solubility pH 7.4; Table 1): < 1 µg/mL
Papp (PAMPA permeability; Table 1): 247 ×10⁻⁶ cm/s

SMILES: Cc1nc(N2CCOCC2)c(C#N)cc1-n1c(=N)n(C)c2cnc3ccc(-c4ccc(Cl)cc4)cc3c21 [Compound 21, 5-(8-(4-chlorophenyl)-2-imino-3-methyl-2,3-dihydro-H-imidazo[4,5-c]quinolin-1-yl)-6-methyl-2-morpholinonicotinonitrile]
EC50 [1, 7]: 317 nM
half-life [2, 8]: > 30 min
solubility (Solubility pH 7.4; Table 1): 4.4 µg/mL (≈ 8.63 µM)
Papp (PAMPA permeability; Table 1): 1560 ×10⁻⁶ cm/s

SMILES: Cn1c(=N)n(-c2ccccc2O)c2c3cc(-c4ccc(Cl)cc4)ccc3ncc21 [Compound 83, 2-(8-(4-chlorophenyl)-2-imino-3-methyl-2,3-dihydro-1H-imidazo[4,5-c]quinolin-1-yl)phenol]
EC50 [1, 7]: 593 nM
solubility (Solubility pH 7.4; Table 1): < 1 µg/mL
Papp (PAMPA permeability; Table 1): 859 ×10⁻⁶ cm/s

SMILES: Cc1ccc(C(N)=O)cc1-n1c(=N)n(C)c2cnc3ccc(-c4ccc(Cl)cc4)cc3c21 [Compound 92, 3-(8-(4-chlorophenyl)-2-imino-3-methyl-2,3-dihydro-1H-imidazo[4,5-c]quinolin-1-yl)-4-methylbenzamide]
half-life [2, 8]: > 30 min
solubility (Solubility pH 7.4; Table 1): > 44 µg/mL
Papp (PAMPA permeability; Table 1): 2 ×10⁻⁶ cm/s
